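These data come from cells grown in 96-well plates and exposed to compound for 48 hours at five concentrations. The concentration for 50% growth inhibition is given as GI50.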 Activity calls are given as the source filed them. No stated cut-off is given here; in the data, active = GI50 up to about 1.1 µM and inactive = higher.

What all share (assay): NCI-60 cell line screen, 48 h
Assay [1] has as its system A498.
The subject of assay [2] is LOX IMVI.
The test system of assay [3] is SK-MEL-2.
In assay [4] the test system is RXF 393.
In assay [5] the test system is DMS-273.
The subject of assay [6] is HCT-15.
Assay [7] deals with UO-31.
The subject of assay [8] is SF-268.
The test system of assay [9] is K562.
Assay [10] has as its system SW-620.
Assay [11] relates to RPMI-8226.
The test system of assay [12] is OVCAR-5.
Assay [13] relates to A549.
The subject of assay [14] is NCI-H460.
The test system of assay [15] is IGROV-1.
Assay [16] deals with SK-MEL-5.

On to `CCC1(CC)C(=O)NC(=O)NC1=S`, for which the GI50 in [1] was > 100 µM (inactive); in [2], > 100 µM (inactive); in assay [3] it was > 100 µM (inactive); in [4], > 100 µM (inactive); in [5], > 100 µM (inactive); in assay [6], above 100 µM. The GI50 in [7], in assay [8], in assay [9], in [10], in assay [11] and in assay [12] was > 100 µM (inactive) throughout. Moreover, the GI50 in assay [13], in assay [14] and in [15] was > 100 µM (inactive) in each case.
`N=C(N)NS(=O)(=O)c1ccc(NC(=O)c2ccc(Cl)c3c(Nc4ccc(S(=O)(=O)N=C(N)N)cc4)c4ccccc4nc23)cc1`: the GI50 in [1] is > 100 µM (inactive); in assay [2] it was 50.9 µM (inactive); in assay [3] it was 39.5 µM (inactive); in assay [4] it was > 100 µM (inactive); in assay [5] it was > 100 µM (inactive); in assay [6], above 100 µM. Besides, the GI50 in [7] is 83.9 µM (inactive); in [8] it was > 100 µM (inactive); in assay [9], 38.1 µM (inactive); in assay [10], 56.2 µM (inactive); in assay [11], 85.1 µM (inactive); in [12], > 100 µM (inactive). Also, the GI50 is > 100 µM (inactive) in assay [13], > 100 µM (inactive) in assay [14], 76.4 µM (inactive) in assay [15] and > 10 µM (inactive) in assay [16].
`c1ccc(CNn2nnc3ccccc32)cc1`: the GI50 was > 100 µM (inactive) in assay [2]; > 100 µM (inactive) in [3]; > 100 µM (inactive) in [4]; > 100 µM (inactive) in assay [5]; above 100 µM in assay [6]; > 100 µM (inactive) in [7]. For the same compound, the GI50 in assay [8], in assay [9], in [10], in assay [11], in [12] and in assay [13] was > 100 µM (inactive) throughout. In addition, the GI50 in [14], in [15] and in assay [16] was > 100 µM (inactive) throughout.
For the compound `O=c1c2c(c1=O)-c1ccccc1CN2`, the GI50 in [1] was > 100 µM (inactive); in assay [2], > 100 µM (inactive); in assay [3] it was > 100 µM (inactive); in [4], > 100 µM (inactive); in assay [5], > 100 µM (inactive); in assay [6] it was above 100 µM. The GI50 in assay [7], in assay [8], in assay [9], in assay [10], in assay [11] and in assay [12] was > 100 µM (inactive) in each case. Moreover, the GI50 in assay [13], in assay [14], in [15] and in [16] was > 100 µM (inactive) in each case.
Regarding `COc1ccc([C@@H]2CC(=O)NCCCNCCCCNCCCN2)cc1`, the GI50 was > 100 µM (inactive) in assay [1]; > 100 µM (inactive) in assay [3]; > 100 µM (inactive) in assay [4]; > 100 µM (inactive) in assay [5]; above 100 µM in [6]; > 100 µM (inactive) in assay [7]. The GI50 in assay [8], in assay [9], in [10], in assay [11], in [12] and in assay [13] was > 100 µM (inactive) each time. Besides, the GI50 in assay [14], in assay [15] and in assay [16] was > 100 µM (inactive) each time.
Consider `[O-][n+]1c2c([n+]([O-])c3ccccc31)CCCCCCCCCC2`, for which the GI50 in [2] is > 100 µM (inactive); in [3] it was > 100 µM (inactive); in [5], > 100 µM (inactive); in [6], above 100 µM; in [7], > 100 µM (inactive); in assay [8], > 100 µM (inactive). The GI50 is 69.7 µM (inactive) in assay [9]; > 100 µM (inactive) in [10]; > 100 µM (inactive) in assay [11]; > 100 µM (inactive) in [13]; > 100 µM (inactive) in assay [15].
As for `O=P1(Oc2ccccc2)C(c2ccccc2)C(c2ccccc2)=NN1c1ccccc1` (configuration not stated), the GI50 in assay [1] was 29.6 µM (inactive); in assay [2] it was 17.3 µM (inactive); in assay [3] it was 15.9 µM (inactive); in assay [4] it was 24.2 µM (inactive); in assay [5] it was 30.3 µM (inactive); in assay [6] it was 19.6 µM. Also, the GI50 in assay [8] is 29.4 µM (inactive); in [9], 24.8 µM (inactive); in [10], 21.5 µM (inactive); in assay [12], 25.4 µM (inactive); in assay [13], 29.2 µM (inactive); in [14], 24.2 µM (inactive). In addition, the GI50 in assay [15] was 26.2 µM (inactive).
In the case of `O=C(O)c1ccc(C2C3C=CC(C3)C2[N+](=O)[O-])cc1` (configuration not stated), the GI50 is > 100 µM (inactive) in assay [1]; > 100 µM (inactive) in assay [2]; > 100 µM (inactive) in assay [3]; > 100 µM (inactive) in assay [4]; > 100 µM (inactive) in assay [5]; above 100 µM in assay [6]. For the same compound, the GI50 in assay [7], in assay [8], in assay [9], in assay [10], in assay [11] and in [13] was > 100 µM (inactive) in each case. Further, the GI50 in assay [14], in assay [15] and in [16] was > 100 µM (inactive) throughout.
As to `Cc1c(C)c([N+](=O)[O-])c2c(c1N)C(=O)c1ccccc1C2=O`, the GI50 in assay [1] is > 100 µM (inactive); in assay [2], > 100 µM (inactive); in [3], > 100 µM (inactive); in assay [4], > 100 µM (inactive); in [5] it was > 100 µM (inactive); in [6] it was above 100 µM. The GI50 in assay [7], in [8], in assay [9], in assay [10], in assay [11] and in [12] was > 100 µM (inactive) each time. Also, the GI50 in [13], in assay [15] and in assay [16] was > 100 µM (inactive) throughout.
Regarding `C[C@H]1CC(=O)C2=CCCC3(SCCCS3)[C@@H]2[C@H]1CO`, the GI50 in assay [1], in assay [2], in assay [3], in [4], in assay [5] and in assay [7] was > 100 µM (inactive) in each case. Further, the GI50 was > 100 µM (inactive) in assay [8]; 47.1 µM (inactive) in assay [9]; > 100 µM (inactive) in assay [10]; 70.8 µM (inactive) in assay [11]; > 100 µM (inactive) in [12]; > 100 µM (inactive) in assay [13]. For the same compound, the GI50 in assay [14], in [15] and in [16] was > 100 µM (inactive) throughout.
`CC(=O)O[C@]12CCCC1C1(O)C(O)CCCC12` (some centres not stated): the GI50 in [2] is > 100 µM (inactive); in [3], > 100 µM (inactive); in [4] it was > 100 µM (inactive); in assay [5] it was > 100 µM (inactive); in assay [6] it was above 100 µM; in [7], > 100 µM (inactive). Also, the GI50 in assay [8], in assay [9], in assay [10], in [11], in assay [13] and in [14] was > 100 µM (inactive) each time. Also, in [16], the GI50 was > 100 µM (inactive).
For the compound `O=C1C2c3[nH]c4ccccc4c3C3CCCCC3C2C(=O)N1c1ccccc1` (configuration not stated), the GI50 in assay [1] is 36.2 µM (inactive); in assay [2], > 100 µM (inactive); in assay [4], 19.6 µM (inactive); in assay [5], 85.3 µM (inactive); in [6] it was above 100 µM; in [7] it was > 100 µM (inactive). The GI50 was 72.9 µM (inactive) in assay [8]; 63.8 µM (inactive) in assay [9]; > 100 µM (inactive) in assay [10]; > 100 µM (inactive) in assay [11]; > 100 µM (inactive) in assay [12]; > 100 µM (inactive) in [13]. The GI50 in assay [14] was > 100 µM (inactive); in [15], 72.1 µM (inactive); in assay [16], > 100 µM (inactive).
`O=C(OC1CCC(=C2SCCCS2)[C@H]1C1SCCCS1)c1ccccc1` (some centres not stated): the GI50 in assay [1] is > 100 µM (inactive); in assay [2], > 100 µM (inactive); in [3] it was > 100 µM (inactive); in assay [4], 67.1 µM (inactive); in assay [5] it was > 100 µM (inactive); in assay [6], above 100 µM. The GI50 in [7] is 24.5 µM (inactive); in assay [9], 75 µM (inactive); in [10], > 100 µM (inactive); in assay [11], 86.3 µM (inactive); in assay [13] it was > 100 µM (inactive); in assay [14] it was > 100 µM (inactive). Further, in [15], the GI50 was > 100 µM (inactive).
For the compound `O=c1ncccn1C1OC(CO)C(O)C1O` (configuration not stated), the GI50 in [1] was > 100 µM (inactive); in assay [2], > 100 µM (inactive); in assay [3], > 100 µM (inactive); in [4], > 100 µM (inactive); in assay [5], > 100 µM (inactive); in assay [6], above 100 µM. The GI50 in assay [7], in [8], in assay [9], in assay [10], in [11] and in assay [12] was > 100 µM (inactive) each time. For the same compound, the GI50 in [13], in assay [14] and in assay [15] was > 100 µM (inactive) throughout.

The record behind these values is ChEMBL document CHEMBL1201862, “PubChem BioAssay data set” (2004).
